From paper PMC10977697 (PLOS ONE, 2024) come the findings set out here.

Where no end group is shown, it is not given here.

The assay deals with EpCAM. As to the kind of experiment: Spot phage ELISA, EpCAM. The format is binding, human. Conditions: spot phage ELISA signal-to-noise on EpCAM. (In general: In an ELISA, binding on a coated surface is turned into a signal by an enzyme label.)
In turn, “GPTQSHYGQCGGLGYVGAMQCSGTTCQYVVRNFSQCLPGAS (disulfide (positions not given here)) [EpCAM CBD 28]” had a S/N of 16.2.
As to “GPTQSHYGQCGGSGYYGAIMCSGTTCQYMRAMQSQCLPGAS (disulfide (positions not given here)) [EpCAM CBD 79]”, the S/N is listed as 7.4.
The same measure for “GCSFPLIRCKQDSDCQLVVLWSKRFCG (disulfide (positions not given here)) [EpCAM EET I-II 2]”: 23.6; for “GPTQSHYGQCGGEGYKGAIVCSGTTCQQTKLQGSQCLPGAS (disulfide (positions not given here)) [EpCAM CBD 75]”: 7.7.
For “GPTQSHYGQCGGHGYHGWAICSGTTCQERIRHLSQCLPGAS (disulfide (positions not given here)) [EpCAM CBD 41]” the value was 11.6; for “GCPRILMRCKQDSDCQPVCG (disulfide (positions not given here)) [EpCAM EET I-II 10]”, 21.9.
For “GPTQSHYGQCGGTGYVGAHVCSGTTCQFVYRDFSQCLPGAS (disulfide (positions not given here)) [EpCAM CBD 48]” the value was 10.5; for “GCPRILMRCKQDSGLSSWLCLCCSASVC (disulfide (positions not given here)) [EpCAM EET I-II 16]”, 20.6.
Consider “GCPRILMRCKQDSDCLAGCVCWPGWPCG (disulfide (positions not given here)) [EpCAM EET I-II 7]”, for which the S/N worked out at 22.
As to “GPTQSHYGQCGGGGYRGVVCSGTTCQPFFVFGSQCLPGAS (disulfide (positions not given here)) [EpCAM CBD 22]”, the S/N was determined as 17.1.
Take “GPTQSHYGQCGGRGYVGAIACSGTTCQFTPPRSSQCLPGAS (disulfide (positions not given here)) [EpCAM CBD 87]”: the S/N came out at 6.1.
“GPTQSHYGQCGGMGYHGFIVCSGTTCQHMMPTTSQCLPGAS (disulfide (positions not given here)) [EpCAM CBD 12]”: the S/N was 19.8.
Take “GPTQSHYGQCGGFGYHGYIVCSGTTCQSRQYDNSQCLPGAS (disulfide (positions not given here)) [EpCAM CBD 21]”: the S/N is recorded as 17.2.
For “GCPRILMRCKQDSDCLCGCV (disulfide (positions not given here)) [EpCAM EET I-II 11]” the value was 21.4.
The same measure for “GCPRILMRCKQDSDCLAGCVCENGIMCG (disulfide (positions not given here)) [EpCAM EET I-II 25]”: 18.6; for “GCKNDKIRCKQDSDCLAGCVCWEDPSCG (disulfide (positions not given here)) [EpCAM EET I-II 22]”: 18.9.
“GPTQSHYGQCGGYGYQGMMMCSGTTCQYVRHKVSQCLPGAS (disulfide (positions not given here)) [EpCAM CBD 30]”: the S/N is 15.6.
For “GPTQSHYGQCGGSGYPGHFLCSGTTCQTPRSWSSQCLPGAS (disulfide (positions not given here)) [EpCAM CBD 82]” the value was 6.9; for “GPTQSHYGQCGGAGYVGTIKCSGTTCQYVLKPQSQCLPGAS (disulfide (positions not given here)) [EpCAM CBD 54]”, 9.4.
The same measure for “CKQDSDCLLVCLGPNGFCG (disulfide (positions not given here)) [EpCAM EET I-II 28]”: 18; for “GPTQSHYGQCGGFGYMGVMVCSGTTCQWIIRPFSQCLPGAS (disulfide (positions not given here)) [EpCAM CBD 25]”: 16.9; for “GPTQSHYGQCGGDGYVGAILCSGTTCQHVSVFPSQCLPGAS (disulfide (positions not given here)) [EpCAM CBD 56]”: 9.3.
Sequence “GPTQSHYGQCGGDGYTGMIRCSGTTCQFVAKKHSQCLPGAS (disulfide (positions not given here)) [EpCAM CBD 40]” had a S/N of 11.8.
For “GPTQSLPGFCGGIGYVGGRYCSGTTCQLPEKLKSQCLPGAS (disulfide (positions not given here)) [EpCAM CBD 1]” the value was 26.7.
In turn, “GPTQSHYGQCGGSGYHGAILCSGTTCQYVEVSRSQCLPGAS (disulfide (positions not given here)) [EpCAM CBD 10]” gave a S/N of 20.7.
For “GCMQWYIWCKQDSDCLAGCLYRSLPLD (disulfide (positions not given here)) [EpCAM EET I-II 9]” the value was 21.9.
The same measure for “GCPRILMRCKQDSDCQPFCG (disulfide (positions not given here)) [EpCAM EET I-II 6]”: 22.2; for “GPTQSHYGQCGGSGYYGVIVCSGTTCQYVNRKPSQCLPGAS (disulfide (positions not given here)) [EpCAM CBD 36]”: 13.1.
For the sequence “GCFRHYVRCKQDSDCLAGCVCWFDWSCG (disulfide (positions not given here)) [EpCAM EET I-II 13]”, the S/N is reported as 20.8.
For the sequence “GPTQSHYGQCGGRGYPGAVICSGTTCQYHQATRSQCLPGAS (disulfide (positions not given here)) [EpCAM CBD 73]”, the S/N was 7.8.
For “GCPRILMRCKQDSDCHWVCG (disulfide (positions not given here)) [EpCAM EET I-II 39]” the value was 6.6.
The same measure for “GPTQSHYGQCGGRGYPGFIRCSGTTCQFVQSVQSQCLPGAS (disulfide (positions not given here)) [EpCAM CBD 78]”: 7.4; for “GPTQSHYGQCGGNGYMGVISCSGTTCQEIQMQRSQCLPGAS (disulfide (positions not given here)) [EpCAM CBD 90]”: 4.8.
The same measure for “GPTQSHYGQCGGGGYPGAIMCSGTTCQFVMAHKSQCLPGAS (disulfide (positions not given here)) [EpCAM CBD 77]”: 7.5; for “GCPRILMRCKQDSDCQLVCLFPGLLVG (disulfide (positions not given here)) [EpCAM EET I-II 36]”: 14.3.
The sequence “GPTQSHYGQCGGKGYPGAIVCSGTTCQLVQSWRSQCLPGAS (disulfide (positions not given here)) [EpCAM CBD 63]” gave a S/N of 8.7.
As for “GCPRILMRCKQDSDCRPVCG (disulfide (positions not given here)) [EpCAM EET I-II 34]”, the S/N is 15.7.
As to “GCRARPLVCKQDSDCLAGPNGFCG (disulfide (positions not given here)) [EpCAM EET I-II 24]”, the S/N is reported as 18.6.
The sequence “GPTQSHYGQCGGPGYPGYIRCSGTTCQWIHSRTSQCLPGAS (disulfide (positions not given here)) [EpCAM CBD 89]” returned a S/N of 5.8.
The same measure for “GPTQSHYGQCGGLGYQGGMMCSGTTCQYVPIWRSQCLPGAS (disulfide (positions not given here)) [EpCAM CBD 17]”: 18.6; for “GCPRILMRCKQDSDCHWFCG (disulfide (positions not given here)) [EpCAM EET I-II 15]”: 20.7.
As to “GPTQSHYGQCGGTGYPGAMVCSGTTCQLFELXVSQCLPGAS (disulfide) [EpCAM CBD 74]”, the S/N is on record as 7.8.
